# Assay results reported in ChEMBL document CHEMBL2203027, “Lanostanoids from fungi: a group of potential anticancer compounds” (J Nat Prod, 2012).
# Test system: HeLa
# Experiment: Cytotoxicity against human HeLa cells
# Type: functional, cell-based
# Details: Homo sapiens, HeLa
row,SMILES,IC50
1,CCOC(=O)C(C)CC(=O)C[C@@H](C)[C@H]1CC(=O)[C@@]2(C)C3=C(C(=O)[C@@H](OC(C)=O)[C@]12C)[C@@]1(C)CCC(=O)C(C)(C)[C@@H]1CC3=O (stereo not given in full),11 µM
2,C/C(=C\CC[C@@H](C)[C@H]1CC[C@@]2(C)C3=C([C@@H](O)C[C@]12C)[C@@]1(C)CCC(=O)C(C)(C)[C@@H]1CC3=O)C(=O)O,11 µM
3,C/C(=C\CC[C@@H](C)[C@H]1C[C@H](O)[C@@]2(C)C3=CC[C@H]4C(C)(C)C(=O)CC[C@]4(C)C3=CC[C@]12C)C(=O)O,11 µM
4,C[C@H](CCC(=O)O)[C@H]1CC[C@@]2(C)C3=C(CC[C@]12C)[C@@]1(C)CCC(=O)C(C)(C)[C@@H]1CC3=O,11 µM
5,C/C(=C\CC[C@@H](C)[C@H]1CC[C@@]2(C)C3=C(CC[C@]12C)[C@@]1(C)CC[C@H](O)C(C)(C)[C@@H]1CC3=O)C(=O)O,> 300 µM
6,C/C(=C\CC[C@@H](C)[C@H]1CC[C@@]2(C)C3=C([C@H](O)C[C@]12C)[C@@]1(C)CCC(=O)C(C)(C)[C@@H]1CC3=O)C(=O)O,101 µM
7,COC(=O)C(C)CC(=O)C[C@@H](C)[C@H]1CC(=O)[C@@]2(C)C3=C(C(=O)[C@@H](OC(C)=O)[C@]12C)[C@@]1(C)CC[C@H](O)C(C)(C)[C@@H]1C[C@@H]3O (stereo not given in full),101 µM
8,CC(=O)O[C@@H]1C(=O)C2=C([C@@H](O)C[C@H]3C(C)(C)[C@@H](O)CC[C@]23C)[C@]2(C)C(=O)C[C@H](/C(C)=C\C(=O)CC(C)C(=O)O)[C@@]12C (stereo not given in full),101 µM
9,CC(CC(=O)C[C@@H](C)[C@H]1C[C@H](O)[C@@]2(C)C3=C(C(=O)C[C@]12C)[C@@]1(C)CC[C@H](O)C(C)(C)[C@@H]1C[C@@H]3O)C(=O)O (stereo not given in full),101 µM
10,CC(=O)O[C@@H]1C(=O)C2=C([C@@H](O)C[C@H]3C(C)(C)C(=O)CC[C@]23C)[C@]2(C)C(=O)C[C@H](/C(C)=C\C(=O)CC(C)C(=O)O)[C@@]12C (stereo not given in full),> 300 µM
11,CC(CC(=O)C[C@@H](C)[C@H]1CC(=O)[C@@]2(C)C3=C(C(=O)[C@@H](O)[C@]12C)[C@@]1(C)CCC(=O)C(C)(C)[C@@H]1C[C@@H]3O)C(=O)O (stereo not given in full),> 300 µM
12,CC(CC(=O)C[C@@H](C)[C@H]1CC(=O)[C@@]2(C)C3=C(C(=O)[C@@H](O)[C@]12C)[C@@]1(C)CCC(=O)C(C)(C)[C@@H]1CC3=O)C(=O)O (stereo not given in full),> 300 µM
13,CC(=O)OC1C[C@H]([C@H](C)CC/C=C(/C)C(=O)O)[C@@]2(C)CC=C3C(=CC[C@H]4C(C)(C)C(=O)CC[C@]34C)[C@]12C (stereo not given in full),> 300 µM
14,C/C(=C\C(=O)CC(C)C(=O)O)[C@H]1C[C@H](O)[C@@]2(C)C3=C(C(=O)C[C@]12C)[C@@]1(C)CCC(=O)C(C)(C)[C@@H]1C[C@@H]3O (stereo not given in full) [GANODERENIC ACID A],> 300 µM
15,C/C(=C\C(=O)CC(C)C(=O)O)[C@H]1CC(=O)[C@@]2(C)C3=C(C(=O)C[C@]12C)[C@@]1(C)CC[C@H](O)C(C)(C)[C@@H]1C[C@@H]3O (stereo not given in full) [GANODERENIC ACID B],202 µM
16,C/C(=C\C(=O)CC(C)C(=O)O)[C@H]1CC(=O)[C@@]2(C)C3=C(C(=O)C[C@]12C)[C@@]1(C)CCC(=O)C(C)(C)[C@@H]1CC3=O (stereo not given in full) [GANODERENICACID F],202 µM
17,CC(CC(=O)C[C@@H](C)[C@H]1CC(=O)[C@@]2(C)C3=C(C(=O)C[C@]12C)[C@@]1(C)CC[C@H](O)C(C)(C)[C@@H]1CC3=O)C(=O)O (stereo not given in full) [GANODERIC ACID AM1],202 µM
18,C[C@H](CC(=O)C[C@@H](C)[C@H]1C[C@H](O)[C@@]2(C)C3=C(C(=O)C[C@]12C)[C@@]1(C)CCC(=O)C(C)(C)[C@@H]1C[C@@H]3O)C(=O)O [GANODERIC ACID A],> 300 µM
19,COC(=O)[C@H](C)CC(=O)C[C@@H](C)[C@H]1CC(=O)[C@@]2(C)C3=C(C(=O)C[C@]12C)[C@@]1(C)CC[C@H](O)C(C)(C)[C@@H]1C[C@@H]3O [GANODERIC ACID B METHYL ESTER],101 µM

row,SMILES,IC50
1,CC(CC(=O)C[C@@H](C)[C@H]1CC(=O)[C@@]2(C)C3=C(C(=O)C[C@]12C)[C@@]1(C)CC[C@H](O)C(C)(C)[C@@H]1C[C@@H]3O)C(=O)O (stereo not given in full) [GANODERIC ACID B],202 µM
2,C[C@H](CC(=O)C[C@@H](C)[C@H]1CC(=O)[C@@]2(C)C3=C(C(=O)C[C@]12C)[C@@]1(C)CCC(=O)C(C)(C)[C@@H]1CC3=O)C(=O)O [GANODERIC ACID E],101 µM
3,CC(=O)O[C@@H]1C(=O)C2=C(C(=O)C[C@H]3C(C)(C)C(=O)CC[C@]23C)[C@]2(C)C(=O)C[C@H]([C@H](C)CC(=O)CC(C)C(=O)O)[C@@]12C (stereo not given in full) [GANODERIC ACID F],> 300 µM
4,CC(CC(=O)C[C@@H](C)[C@H]1CC(=O)[C@@]2(C)C3=C(C(=O)[C@@H](O)[C@]12C)[C@@]1(C)CC[C@H](O)C(C)(C)[C@@H]1C[C@@H]3O)C(=O)O (stereo not given in full) [GANODERIC ACID G],101 µM
5,CC(=O)O[C@@H]1C(=O)C2=C(C(=O)C[C@H]3C(C)(C)[C@@H](O)CC[C@]23C)[C@]2(C)C(=O)C[C@H]([C@H](C)CC(=O)CC(C)C(=O)O)[C@@]12C (stereo not given in full) [GANODERIC ACID H],> 300 µM
6,CC(CC(=O)C[C@@H](C)[C@H]1C[C@H](O)[C@@]2(C)C3=C(C(=O)C[C@]12C)[C@@]1(C)CCC(=O)C(C)(C)[C@@H]1CC3=O)C(=O)O (stereo not given in full) [GANODERIC ACID J],> 300 µM
7,CC(=O)O[C@@H]1C(=O)C2=C([C@@H](O)C[C@H]3C(C)(C)[C@@H](O)CC[C@]23C)[C@]2(C)C(=O)C[C@H]([C@H](C)CC(=O)CC(C)C(=O)O)[C@@]12C (stereo not given in full) [GANODERIC ACID K],> 300 µM
8,C/C(=C\CC[C@@H](C)[C@H]1CC[C@@]2(C)C3=CC[C@H]4C(C)(C)[C@@H](O)CC[C@]4(C)C3=CC[C@]12C)C(=O)O [GANODERIC ACID Y],11 µM
9,C[C@H](CC[C@@H](O)C(C)(C)O)[C@H]1CC[C@@]2(C)C3=CC[C@H]4C(C)(C)C(=O)CC[C@]4(C)C3=CC[C@]12C [GANODERMANONDIOL],11 µM
10,C[C@H](CC[C@H](O)[C@](C)(O)CO)[C@H]1CC[C@@]2(C)C3=CC[C@H]4C(C)(C)C(=O)CC[C@]4(C)C3=CC[C@]12C [GANODERMANONTRIOL],11 µM
11,C/C(=C\CC[C@@H](C)[C@H]1CC[C@@]2(C)C3=CC[C@H]4C(C)(C)[C@@H](O)CC[C@]4(C)C3=CC[C@]12C)CO [GANODEROL B],101 µM
12,CC(CC(=O)C[C@@H](C)[C@H]1C[C@H](O)[C@@]2(C)C3=C(C(=O)C[C@]12C)[C@@]1(C)CCC(=O)C(C)(C)[C@@H]1CC3)C(=O)O (stereo not given in full) [GANOLUCIDIC ACID A],101 µM
13,C/C(=C\CC[C@@H](C)[C@H]1C[C@H](O)[C@@]2(C)C3=C(C(=O)C[C@]12C)[C@@]1(C)CCC(=O)C(C)(C)[C@@H]1CC3)C(=O)O [GANOLUCIDIC ACID E],11 µM
14,C/C(=C\CC[C@@H](C)[C@H]1CC[C@@]2(C)C3=C(CC[C@]12C)[C@@]1(C)CC[C@H](O)C(C)(C)[C@@H]1CC3=O)CO [LUCIDADIOL],5 µM
15,C[C@H](CCC(=O)O)[C@H]1CC(=O)[C@@]2(C)C3=C(C(=O)C[C@]12C)[C@@]1(C)CCC(=O)C(C)(C)[C@@H]1C[C@@H]3O [LUCIDENIC ACID A],> 300 µM
16,CC(=O)[C@H]1CC(=O)[C@@]2(C)C3=C(C(=O)C[C@]12C)[C@@]1(C)CC[C@H](O)C(C)(C)[C@@H]1C[C@@H]3O [LUCIDONE A],101 µM
17,C[C@H](CC[C@H](O)C(C)(C)O)[C@H]1CC[C@@]2(C)C3=C(CC[C@]12C)[C@@]1(C)CCC(=O)C(C)(C)[C@@H]1CC3=O [LUCIDUMOL A],11 µM
18,COC(=O)C(C)CC(=O)C[C@@H](C)[C@H]1CC(=O)[C@@]2(C)C3=C(C(=O)[C@@H](OC(C)=O)[C@]12C)[C@@]1(C)CC[C@H](O)C(C)(C)[C@@H]1CC3=O (stereo not given in full) [METHYL GANODERATE H],11 µM
19,COC(=O)CC[C@@H](C)[C@H]1CC(=O)[C@@]2(C)C3=C(C(=O)[C@@H](O)[C@]12C)[C@@]1(C)CC[C@H](O)C(C)(C)[C@@H]1C[C@@H]3O [METHYL LUCIDENATE C],101 µM

# Same assay, conditions: hela
row,SMILES,IC50
1,CC(CC(=O)C[C@@H](C)[C@H]1CC(=O)[C@@]2(C)C3=C(C(=O)C[C@]12C)[C@@]1(C)CCC(=O)C(C)(C)[C@@H]1C[C@@H]3O)C(=O)O (stereo in doubt; 10) [GANODERIC ACID D],31 µM
2,CC(CC(=O)C[C@@H](C)[C@H]1CC(=O)[C@@]2(C)C3=C(C(=O)C[C@]12C)[C@@]1(C)CCC(=O)C(C)(C)[C@@H]1C[C@@H]3O)C(=O)O (stereo in doubt; 81) [GANODERIC ACID D],> 300 µM

# Test system: L1210
# Experiment: Cytotoxicity against mouse L1210 cells
# Type: functional, cell-based
# Details: not given
row,SMILES,IC50
1,CC(C)=CCC[C@@H](C=O)[C@H]1CC[C@@]2(C)C3=C(CC[C@]12C)[C@@]1(C)CC[C@H](O)C(C)(C)[C@@H]1CC3,34.4 µM
2,CC(C)=CCC[C@@H](C(=O)O)[C@H]1CC[C@@]2(C)C3=C(CC[C@]12C)[C@@]1(C)CC[C@H](O)C(C)(C)[C@@H]1CC3 [TRAMETENOLIC ACID],62.5 µM

# Test system: not listed separately
# Experiment: Cytotoxicity against mouse Meth-A cells
# Type: functional, cell-based
# Details: read-out: ED50 (the source's name)
row,SMILES,EC50
1,C/C(=C\[C@@H](O)C[C@@H](C)[C@H]1CC(=O)[C@@]2(C)C3=C(C(=O)[C@@H](O)[C@]12C)[C@@]1(C)CC[C@H](O)C(C)(C)[C@@H]1CC3=O)C(=O)O [GANODERIC ACID THETA],2.3 µg/mL
2,C[C@H](CC[C@@H](O)C(C)(C)O)[C@H]1CC[C@@]2(C)C3=CC[C@H]4C(C)(C)C(=O)CC[C@]4(C)C3=CC[C@]12C [GANODERMANONDIOL],3.4 µg/mL
3,C[C@H](CC[C@H](O)[C@](C)(O)CO)[C@H]1CC[C@@]2(C)C3=CC[C@H]4C(C)(C)C(=O)CC[C@]4(C)C3=CC[C@]12C [GANODERMANONTRIOL],2.3 µg/mL
4,C[C@H](CC[C@H](O)C(C)(C)O)[C@H]1CC[C@@]2(C)C3=C(CC[C@]12C)[C@@]1(C)CCC(=O)C(C)(C)[C@@H]1CC3=O [LUCIDUMOL A],2.3 µg/mL

# Test system: not listed separately
# Experiment: Cytotoxicity against mouse LLC cells
# Type: functional, cell-based
# Details: Lewis lung carcinoma, read-out: ED50 (the source's name)
row,SMILES,EC50
1,C/C(=C\[C@@H](O)C[C@@H](C)[C@H]1CC(=O)[C@@]2(C)C3=C(C(=O)[C@@H](O)[C@]12C)[C@@]1(C)CC[C@H](O)C(C)(C)[C@@H]1CC3=O)C(=O)O [GANODERIC ACID THETA],2.3 µg/mL
2,C[C@H](CC[C@@H](O)C(C)(C)O)[C@H]1CC[C@@]2(C)C3=CC[C@H]4C(C)(C)C(=O)CC[C@]4(C)C3=CC[C@]12C [GANODERMANONDIOL],2.3 µg/mL
3,C[C@H](CC[C@H](O)[C@](C)(O)CO)[C@H]1CC[C@@]2(C)C3=CC[C@H]4C(C)(C)C(=O)CC[C@]4(C)C3=CC[C@]12C [GANODERMANONTRIOL],2.3 µg/mL
4,C[C@H](CC[C@H](O)C(C)(C)O)[C@H]1CC[C@@]2(C)C3=C(CC[C@]12C)[C@@]1(C)CCC(=O)C(C)(C)[C@@H]1CC3=O [LUCIDUMOL A],2.3 µg/mL
